Experimental data taken from patent US20220233502A1, “COMPOSITION FOR PREVENTING OR TREATING ASTHMA, RHINITIS OR CONJUNCTIVITIS, COMPRISING N-ACYL AMINO ACID AS ACTIVE INGREDIENT” (STEMDR INC., priority 2019, published 2022).
Entries after “also recorded” stand apart in the source; their conditions may differ.

How the values were obtained:
Assay type in all cases: in vivo, BALB/c mice
[1] = tested on: IL-4; test: Th2 cytokine IL-4 in bronchial wash (ELISA); details: OVA asthma mice; 3.5 μmol/kg oral once a day for 7 days from day 25; FIG. 3
Description: (§1) Specific pathogen-free BALB/c mice (6-week-old, male) were purchased from Doul Biotech (Osan, Korea). Experiment was started when the mice were 7- to 10-week old. The mice were housed in a laminar flow cabinet and were given water and feed ad libitum.
(§2) The mice were sensitized by intraperitoneally injecting 0.02 mg of ovalbumin (OVA) and alum (1 mg) (Sigma-Aldrich) as an immunologic adjuvant twice on days 0 and 14. For 4 days from day 28, the mice were placed in a plastic nebulizer container of a regular size and were made to inhale OVA in the form of an aerosol by spraying 5% OVA for 30 minutes (airway challenge).
(§3) The concentration of several cytokines (TNF-α, IL-4, IL-5, IL-13) in bronchial wash was measured using an ELISA kit (R&D Systems, Minneapolis, Minn., USA).
(§4) Th2 cytokines, IL-4, IL-5 and IL-13, are known to be involved in airway inflammation, bronchial hypersensitivity and IgE antibody production mediated by eosinophils. 3.5 μmol/kg N-acetyl-L-alanine, N-oleoyl-L-alanine, N-acetyl-L-tryptophan or N-oleoyl-L-tryptophan dissolved in 10 mL of phosphate-buffered saline was orally administered once a day, for 7 days from day 25 after the induction of asthma, and the cytokines were measured.

[2] = tested on: rhinitis-induced mice; test: OVA-induced allergic rhinitis, nasal rubbing and sneezing; details: 10 μL of 10 μM intranasally; for number of nasal rubbing: counted for 15 minutes on day 27, FIG. 6A; for number of sneezing: counted for 15 minutes on day 27, FIG. 6B
Description: as §1
The mice were sensitized by intraperitoneally injecting 0.02 mg of ovalbumin (OVA) and alum (1 mg) (Sigma-Aldrich) as an immunologic adjuvant twice on days 0 and 14. For 7 days from day 21, the mice were topically stimulated by injecting 10 μL of a solution of 100 μg of OVA dissolved in 20 μL of phosphate-buffered saline into both nasal cavities, once a day. After the final injection of OVA (day 27), symptom score was recorded by summing the numbers of nasal rubbing and sneezing. The symptom score was recorded for 15 minutes, and the result was compared between the groups.
Ovalbumin (OVA) of Preparation Example 3 was used as an antigen to induce allergic rhinitis. After OVA challenging from day 21 to day 26, 10 μL of each of N-acetyl-L-alanine, N-oleoyl-L-alanine, N-acetyl-L-tryptophan and N-oleoyl-L-tryptophan dissolved in phosphate-buffered saline to 10 μM was intranasally administered 12 hours later. After the final injection of OVA (day 27), symptom score was recorded by summing the numbers of nasal rubbing and sneezing. The symptom score was recorded for 15 minutes, and the result was compared between the groups.

[3] = tested on: asthma-induced mice (lung tissue); test: Masson's trichrome staining of lung tissue, degree of fibrosis around the airway; details: OVA asthma mice; oral administration for a week; vs OVA-challenged group; FIG. 2
Description: as §1, §2
(§5) For histological assay, tissues taken out from the lung were fixed with formalin and embedded in paraffin. The embedded tissue was sliced to 4-μm thickness and subjected to 1) hematoxylin and eosin (H&E) staining for investigation of the degree of inflammation and 2) Masson's trichrome staining for investigation of the degree of pulmonary fibrosis.
Lung tissue was stained with Masson's trichrome after oral administration of the drug for a week.

[4] = tested on: asthma-induced mice (inflammatory cells in the airway); test: Inflammatory cells in bronchoalveolar lavage fluid of asthma-induced mice; details: OVA asthma mice; for inflow of eosinophils into the airway / WBC, bronchoalveolar lavage fluid: 3.5 μmol/kg oral once a day for 7 days from day 25; for inflow of eosinophils into the airway: result in words; for WBC Differential Counting (%) EOS (eosinophils) / WBC Differential Counting (%) MAC (macrophages) / WBC Differential Counting (%) MONO (monocytes) / WBC Differential Counting (%) NEU (neutrophils) / WBC Differential Counting (k/uL) EOS (eosinophils) / WBC Differential Counting (k/uL) MAC (macrophages) / WBC Differential Counting (k/uL) MONO (monocytes) / WBC Differential Counting (k/uL) NEU (neutrophils) / WBC, bronchoalveolar lavage fluid: mean, N=8; for WBC Differential Counting (%) EOS (eosinophils) / WBC Differential Counting (%) MAC (macrophages) / WBC Differential Counting (%) MONO (monocytes) / WBC Differential Counting (%) NEU (neutrophils) / WBC Differential Counting (k/uL) EOS (eosinophils) / WBC Differential Counting (k/uL) MAC (macrophages) / WBC Differential Counting (k/uL) MONO (monocytes) / WBC Differential Counting (k/uL) NEU (neutrophils): BAL fluid, 3.5 μmol/kg oral once a day for 7 days
Description: Specific pathogen-free BALB/c mice (6-week-old, male) were purchased from Doul Biotech (Osan, Korea). Experiment was started when the mice were 7- to 10-week old. The mice were housed in a laminar flow cabinet and were given water and feed ad libitum. The mice were sensitized by intraperitoneally injecting 0.02 mg of ovalbumin (OVA) and alum (1 mg) (Sigma-Aldrich) as an immunologic adjuvant twice on days 0 and 14. For 4 days from day 28, the mice were placed in a plastic nebulizer container of a regular size and were made to inhale OVA in the form of an aerosol by spraying 5% OVA for 30 minutes (airway challenge). After anesthetizing the mouse and inserting a tube into the bronchus, the bronchus was washed with a buffer and cells were obtained therefrom. The cells were centrifuged, suspended at 1×10^4 cells/100 μL, and fixed by centrifuging with a cytospin. Then, the number of eosinophils, monocytes, neutrophils and macrophages were measured by staining with Diff-Quik. Neutrophils, macrophages, monocytes and eosinophils were observed as inflammatory cells in the airway. Each of N-acetyl-L-alanine, N-oleoyl-L-alanine, N-acetyl-L-tryptophan and N-oleoyl-L-tryptophan was dissolved in 10 mL of phosphate-buffered saline to 3.5 μmol/kg and was orally administered for 7 days from day 25, once a day.

[5] = tested on: conjunctivitis-induced mice; test: OVA-induced conjunctivitis, clinical grading of conjunctival edema and flare; details: 10 μL of 100 μM intraocularly 30 minutes and 12 hours after challenge, scale 0 to 4+, FIG. 7
Description: as §1
The mice were sensitized by intraperitoneally injecting 0.02 mg of ovalbumin (OVA) and alum (1.5 mg) (Sigma-Aldrich) as an immunologic adjuvant twice on days 0 and 7. For 12 days from day 14, conjunctivitis was induced by injecting 10 μL of a solution of 100 μg of OVA dissolved in 20 μL of phosphate-buffered saline into each eye, once a day.
24 hours after the final injection of OVA (day 25), the clinical grading of conjunctival edema and flare (redness) was assessed using a portable slit lamp (Carl Zeiss, Oberkochen, Germany). The assessment was performed in a blinded fashion 2 hours after OVA injection. Each clinical parameter was scored on a scale of 0 to 4+(0 absent, 1+minimal, 2+mild, 3+moderate, 4+severe) as described in Merayo-Lloves, J., Calonge, M, and Foster, C. S. 1995. Experimental model of allergic conjunctivitis to ragweed in guinea pig. Curr. Eye Res. 14: 487-494. A negative control group was given no treatment.
Ovalbumin of Preparation Example 4 was used as an antigen to induce conjunctivitis. After challenging 100 μg of ovalbumin into the eye from day 15 to 26, 10 μL of each of N-acetyl-L-alanine, N-oleoyl-L-alanine, N-acetyl-L-tryptophan and N-oleoyl-L-tryptophan dissolved in phosphate-buffered saline to 100 μM was intraocularly administered 30 minutes and 12 hours later. On day 26, the clinical grading of conjunctival edema and flare (redness) was assessed using a portable slit lamp (Carl Zeiss, Oberkochen, Germany).

[6] = tested on: IL-13; test: Th2 cytokine IL-13 in bronchial wash (ELISA); details: OVA asthma mice; 3.5 μmol/kg oral once a day for 7 days from day 25; FIG. 5
Description: as §1, §2, §3, §4

[7] = tested on: asthma-induced mice (lung tissue); test: H&E staining of lung tissue, degree of inflammation; details: OVA asthma mice; oral administration for a week; vs OVA-challenged group; FIG. 1
Description: as §1, §2, §5
Lung tissue was stained with H&E after oral administration of the drug for a week.

[8] = tested on: IL-5; test: Th2 cytokine IL-5 in bronchial wash (ELISA); details: OVA asthma mice; 3.5 μmol/kg oral once a day for 7 days from day 25; FIG. 4
Description: as §1, §2, §3, §4

Structure (SMILES)	IL-4 secretion in airway [1]	number of nasal rubbing [2]	number of sneezing [2]	fibrosis around the airway, Masson's trichrome staining of lung tissue [3]	inflow of eosinophils into the airway [4]	WBC Differential Counting (%) EOS (eosinophils) [4] [%]	WBC Differential Counting (%) MAC (macrophages) [4] [%]	WBC Differential Counting (%) MONO (monocytes) [4] [%]	WBC Differential Counting (%) NEU (neutrophils) [4] [%]	WBC Differential Counting (k/uL) EOS (eosinophils) [4] [k/uL]	WBC Differential Counting (k/uL) MAC (macrophages) [4] [k/uL]	WBC Differential Counting (k/uL) MONO (monocytes) [4] [k/uL]	WBC Differential Counting (k/uL) NEU (neutrophils) [4] [k/uL]	WBC, bronchoalveolar lavage fluid [4]	clinical grade of conjunctivitis (conjunctival edema and flare) [5]	IL-13 secretion in airway [6]	inflammation around the airway, H&E staining of lung tissue [7]	IL-5 secretion in airway [8]
CC(=O)N[C@@H](C)C(=O)O [NAA, N-acetyl-L-alanine]	significantly inhibited	remarkably decreased	remarkably decreased	inhibited fibrosis	significantly inhibited	10.1	81.8	3.3	4.9	0.04	0.32	0.01	0.02	0.39 ×10^2 cells/μL	remarkably increased clinical grades	significantly inhibited	remarkably inhibited inflammation	significantly inhibited
CC(=O)N[C@@H](Cc1c[nH]c2ccccc12)C(=O)O [NAT, N-acetyl-L-tryptophan]	significantly inhibited	remarkably decreased	remarkably decreased	inhibited fibrosis	significantly inhibited	20.1	71.8	3.9	4.1	0.10	0.33	0.02	0.02	0.47 ×10^2 cells/μL	remarkably increased clinical grades	significantly inhibited	remarkably inhibited inflammation	significantly inhibited
CCCCCCCC/C=C\CCCCCCCC(=O)N[C@@H](C)C(=O)O [NOA, N-oleoyl-L-alanine]	significantly inhibited	remarkably decreased	remarkably decreased	inhibited fibrosis; also recorded: highest inhibition	significantly inhibited	3.4	87.3	3.8	5.5	0.01	0.34	0.01	0.02	0.38 ×10^2 cells/μL	remarkably increased clinical grades	significantly inhibited	remarkably inhibited inflammation; also recorded: highest inhibition of inflammation	significantly inhibited
CCCCCCCC/C=C\CCCCCCCC(=O)N[C@@H](Cc1c[nH]c2ccccc12)C(=O)O [NOT, N-oleoyl-L-tryptophan]	significantly inhibited	remarkably decreased	remarkably decreased	inhibited fibrosis	significantly inhibited	17.0	74.3	3.6	5.1	0.07	0.32	0.01	0.02	0.43 ×10^2 cells/μL	remarkably increased clinical grades	significantly inhibited	remarkably inhibited inflammation	significantly inhibited
